# Assay results taken from ChEMBL document CHEMBL3045335, “Synthesis, antimicrobial, and antioxidant activities of some new indole analogues containing pyrimidine and fused pyrimidine systems” (Med Chem Res, 2012).
# How the values were obtained:
# Assay type in all cases: functional
# Aspergillus terreus = assay: Antifungal activity against Aspergillus terreus at 1 mg/ml after 72 hr by agar well diffusion method; conditions: read-out: IZ
# Aspergillus oryzae = assay: Antifungal activity against Aspergillus oryzae at 1 mg/ml after 72 hr by agar well diffusion method; conditions: read-out: IZ
# Aspergillus niger = assay: Antifungal activity against Aspergillus niger at 1 mg/ml after 72 hr by agar well diffusion method; conditions: read-out: IZ
# [1] = tested on: Radical scavenging activity; assay: Antioxidant activity assessed as DPPH radical scavenging activity at 100 ug/ml by spectrophotometric analysis
# Klebsiella pneumoniae = assay: Antibacterial activity against Klebsiella pneumoniae at 1 mg/ml after 24 hr by agar well diffusion method; conditions: for zone of inhibition at 1000 µg/mL: read-out: IZ
# [2] = tested on: Radical scavenging activity; assay: Antioxidant activity assessed as DPPH radical scavenging activity by spectrophotometric analysis
# Pseudomonas aeruginosa = assay: Antibacterial activity against Pseudomonas aeruginosa at 1 mg/ml after 24 hr by agar well diffusion method; conditions: for zone of inhibition at 1000 µg/mL: read-out: IZ
# Staphylococcus aureus = assay: Antibacterial activity against Staphylococcus aureus at 1 mg/ml after 24 hr by agar well diffusion method; conditions: for zone of inhibition at 1000 µg/mL: read-out: IZ
Molecule,zone of inhibition at 1000 µg/mL (Aspergillus terreus) [mm],zone of inhibition at 1000 µg/mL (Aspergillus oryzae) [mm],zone of inhibition at 1000 µg/mL (Aspergillus niger) [mm],Activity [1] [%],zone of inhibition at 1000 µg/mL (Klebsiella pneumoniae) [mm],IC50 [2] [µg/mL],zone of inhibition at 1000 µg/mL (Pseudomonas aeruginosa) [mm],zone of inhibition at 1000 µg/mL (Staphylococcus aureus) [mm],inhibition zone (IZ) (Klebsiella pneumoniae) [mm],inhibition zone (IZ) (Pseudomonas aeruginosa) [mm],inhibition zone (IZ) (Staphylococcus aureus) [mm]
OC(Cn1cncn1)(Cn1cncn1)c1ccc(F)cc1F [FLUCONAZOLE],15,14,14,,,,,,,,
N#Cc1c(-c2c(-c3ccccc3)[nH]c3ccc(Cl)cc23)[nH]c(=S)[nH]c1=O,9,12,10,79.7,14,16.43,10,14,,,
GENTAMICIN,,,,,,,,,15,16,15
Cc1ccc2[nH]c(-c3ccccc3)c(-c3[nH]c(=S)[nH]c(=S)c3C#N)c2c1,10,9,9,,8,,10,9,,,
N#Cc1c(NN)nc(NN)nc1-c1c(-c2ccccc2)[nH]c2ccc(Cl)cc12,10,10,8,,10,,13,11,,,
N#Cc1c(-c2c(-c3ccccc3)[nH]c3ccccc23)[nH]c(=S)[nH]c1=O,10,10,10,,12,,11,11,,,
N#Cc1c(-c2c(-c3ccccc3)[nH]c3ccc(Cl)cc23)[nH]c(=S)[nH]c1=S,10,11,11,,9,,10,12,,,
NNc1nc(-c2c(-c3ccccc3)[nH]c3ccc(Cl)cc23)c2c(N)n[nH]c2n1,10,13,9,,9,,13,13,,,
N#Cc1c(-c2c(-c3ccccc3)[nH]c3ccccc23)n2nnnc2n2nnnc12,10,7,10,,12,,14,14,,,
N#Cc1c(-c2c(-c3ccccc3)[nH]c3ccc(Cl)cc23)n2nnnc2n2nnnc12,11,10,13,,13,,12,14,,,
N#Cc1c(NN)nc(NN)nc1-c1c(-c2ccccc2)[nH]c2ccccc12,11,10,10,,11,,10,8,,,
N#Cc1c(-c2c(-c3ccccc3)[nH]c3ccccc23)[nH]c(=S)[nH]c1=S,11,10,11,,8,,7,8,,,
CC(C)(C)c1cc(O)ccc1O [E319],,,,,,14.46,,,,,
Cc1ccc2[nH]c(-c3ccccc3)c(-c3[nH]c(=S)[nH]c(=O)c3C#N)c2c1,11,11,13,,11,,10,12,,,
Cc1ccc2[nH]c(-c3ccccc3)c(-c3nc(NN)nc4[nH]nc(N)c34)c2c1,10,9,10,,13,,12,11,,,
COc1ccc(O)c(C(C)(C)C)c1.COc1ccc(O)cc1C(C)(C)C [BUTYLATED HYDROXYANISOLE],,,,,,14.35,,,,,
NNc1nc(-c2c(-c3ccccc3)[nH]c3ccccc23)c2c(N)n[nH]c2n1,10,12,12,,12,,11,12,,,
Cc1ccc2[nH]c(-c3ccccc3)c(-c3nc(NN)nc(NN)c3C#N)c2c1,11,9,11,,12,,10,10,,,
Cc1ccc2[nH]c(-c3ccccc3)c(-c3c(C#N)c4nnnn4c4nnnn34)c2c1,12,9,9,,11,,10,10,,,
